Measured values from patent publication US8192962B2, “Processes for detecting toxic substances” (Daikin Industries, Ltd., priority 2001, dated 2012).

Test system: Unknown protein yeast genes
Test: DNA chip mRNA expression in yeast, unknown protein yeast genes (Table 1)
Type: cell-based, Saccharomyces cerevisiae S288C
Method in brief: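 Chemical exposure: 2 h, log-phase S. cerevisiae S288C, YPD, 25° C., dose set to inhibit growth without death. Profiling: mRNA labeled by reverse transcription with Cy3- or Cy5-dUTP, hybridized to whole-genome array. Output: fluorescence ratio against untreated culture.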

S=C([S-])NCCNC(=S)[S-].[Zn+2] [(11), zinc N,N′-ethylenebis(dithiocarbamate)]
The level of expressed mRNA in the presence of chemical substance/The level of expressed mRNA in the absence of chemical substance (yeast gene YAL053W, incubated two hours with chemical substance): 2.3
The level of expressed mRNA in the presence of chemical substance/The level of expressed mRNA in the absence of chemical substance (yeast gene YBL048W): 2.0
The level of expressed mRNA in the presence of chemical substance/The level of expressed mRNA in the absence of chemical substance (yeast gene YBL107C): 2.9
The level of expressed mRNA in the presence of chemical substance/The level of expressed mRNA in the absence of chemical substance (yeast gene YDL072C, incubated two hours with chemical substance): 1.4
The level of expressed mRNA in the presence of chemical substance/The level of expressed mRNA in the absence of chemical substance (yeast gene YDL204W, incubated two hours with chemical substance): 3.2
The level of expressed mRNA in the presence of chemical substance/The level of expressed mRNA in the absence of chemical substance (yeast gene YDL222C, incubated two hours with chemical substance): 2.6
The level of expressed mRNA in the presence of chemical substance/The level of expressed mRNA in the absence of chemical substance (yeast gene YDR330W, incubated two hours with chemical substance): 0.9
The level of expressed mRNA in the presence of chemical substance/The level of expressed mRNA in the absence of chemical substance (yeast gene YDR391C, incubated two hours with chemical substance): 1.9
The level of expressed mRNA in the presence of chemical substance/The level of expressed mRNA in the absence of chemical substance (yeast gene YDR411C, incubated two hours with chemical substance): 1.3
The level of expressed mRNA in the presence of chemical substance/The level of expressed mRNA in the absence of chemical substance (yeast gene YDR511W, incubated two hours with chemical substance): 1.2
The level of expressed mRNA in the presence of chemical substance/The level of expressed mRNA in the absence of chemical substance (yeast gene YDR545W, incubated two hours with chemical substance): 0.7
The level of expressed mRNA in the presence of chemical substance/The level of expressed mRNA in the absence of chemical substance (yeast gene YEL001C, incubated two hours with chemical substance): 1.2
The level of expressed mRNA in the presence of chemical substance/The level of expressed mRNA in the absence of chemical substance (yeast gene YER004W, incubated two hours with chemical substance): 2.2
The level of expressed mRNA in the presence of chemical substance/The level of expressed mRNA in the absence of chemical substance (yeast gene YER035W, incubated two hours with chemical substance): 1.4
The level of expressed mRNA in the presence of chemical substance/The level of expressed mRNA in the absence of chemical substance (yeast gene YER079W, incubated two hours with chemical substance): 2.1
The level of expressed mRNA in the presence of chemical substance/The level of expressed mRNA in the absence of chemical substance (yeast gene YER106W, incubated two hours with chemical substance): 1.0
The level of expressed mRNA in the presence of chemical substance/The level of expressed mRNA in the absence of chemical substance (yeast gene YER158C, incubated two hours with chemical substance): 2.3
The level of expressed mRNA in the presence of chemical substance/The level of expressed mRNA in the absence of chemical substance (yeast gene YER163C, incubated two hours with chemical substance): 1.6
The level of expressed mRNA in the presence of chemical substance/The level of expressed mRNA in the absence of chemical substance (yeast gene YER175C, incubated two hours with chemical substance): 1.1
The level of expressed mRNA in the presence of chemical substance/The level of expressed mRNA in the absence of chemical substance (yeast gene YFL006W, incubated two hours with chemical substance): 1.2
The level of expressed mRNA in the presence of chemical substance/The level of expressed mRNA in the absence of chemical substance (yeast gene YFL010C, incubated two hours with chemical substance): 1.4
The level of expressed mRNA in the presence of chemical substance/The level of expressed mRNA in the absence of chemical substance (yeast gene YFL024C): 0.6
The level of expressed mRNA in the presence of chemical substance/The level of expressed mRNA in the absence of chemical substance (yeast gene YFL032W, incubated two hours with chemical substance): 1.1
The level of expressed mRNA in the presence of chemical substance/The level of expressed mRNA in the absence of chemical substance (yeast gene YGL037C, incubated two hours with chemical substance): 3.9
The level of expressed mRNA in the presence of chemical substance/The level of expressed mRNA in the absence of chemical substance (yeast gene YGL047W, incubated two hours with chemical substance): 1.9
The level of expressed mRNA in the presence of chemical substance/The level of expressed mRNA in the absence of chemical substance (yeast gene YGL053W, incubated two hours with chemical substance): 1.3
The level of expressed mRNA in the presence of chemical substance/The level of expressed mRNA in the absence of chemical substance (yeast gene YGL121C): 6.1
The level of expressed mRNA in the presence of chemical substance/The level of expressed mRNA in the absence of chemical substance (yeast gene YGL218W): 0.1
The level of expressed mRNA in the presence of chemical substance/The level of expressed mRNA in the absence of chemical substance (yeast gene YGR101W, incubated two hours with chemical substance): 2.0
The level of expressed mRNA in the presence of chemical substance/The level of expressed mRNA in the absence of chemical substance (yeast gene YGR110W): 0.5
The level of expressed mRNA in the presence of chemical substance/The level of expressed mRNA in the absence of chemical substance (yeast gene YGR130C, incubated two hours with chemical substance): 0.8
The level of expressed mRNA in the presence of chemical substance/The level of expressed mRNA in the absence of chemical substance (yeast gene YGR142W): 2.3
The level of expressed mRNA in the presence of chemical substance/The level of expressed mRNA in the absence of chemical substance (yeast gene YGR154C, incubated two hours with chemical substance): 1.5
The level of expressed mRNA in the presence of chemical substance/The level of expressed mRNA in the absence of chemical substance (yeast gene YGR221C, incubated two hours with chemical substance): 0.5
The level of expressed mRNA in the presence of chemical substance/The level of expressed mRNA in the absence of chemical substance (yeast gene YHR138C, incubated two hours with chemical substance): 1.6
The level of expressed mRNA in the presence of chemical substance/The level of expressed mRNA in the absence of chemical substance (yeast gene YHR199C, incubated two hours with chemical substance): 1.9
The level of expressed mRNA in the presence of chemical substance/The level of expressed mRNA in the absence of chemical substance (yeast gene YIL023C, incubated two hours with chemical substance): 1.1
The level of expressed mRNA in the presence of chemical substance/The level of expressed mRNA in the absence of chemical substance (yeast gene YIL041W, incubated two hours with chemical substance): 1.4
The level of expressed mRNA in the presence of chemical substance/The level of expressed mRNA in the absence of chemical substance (yeast gene YIL087C, incubated two hours with chemical substance): 2.8
The level of expressed mRNA in the presence of chemical substance/The level of expressed mRNA in the absence of chemical substance (yeast gene YIL089W): 0.7
The level of expressed mRNA in the presence of chemical substance/The level of expressed mRNA in the absence of chemical substance (yeast gene YJL057C, incubated two hours with chemical substance): 2.0
The level of expressed mRNA in the presence of chemical substance/The level of expressed mRNA in the absence of chemical substance (yeast gene YJL066C, incubated two hours with chemical substance): 0.8
The level of expressed mRNA in the presence of chemical substance/The level of expressed mRNA in the absence of chemical substance (yeast gene YJL082W, incubated two hours with chemical substance): 1.0
The level of expressed mRNA in the presence of chemical substance/The level of expressed mRNA in the absence of chemical substance (yeast gene YJL151C, incubated two hours with chemical substance): 1.0
The level of expressed mRNA in the presence of chemical substance/The level of expressed mRNA in the absence of chemical substance (yeast gene YJL152W, incubated two hours with chemical substance): 1.0
The level of expressed mRNA in the presence of chemical substance/The level of expressed mRNA in the absence of chemical substance (yeast gene YJL161W, incubated two hours with chemical substance): 3.7
The level of expressed mRNA in the presence of chemical substance/The level of expressed mRNA in the absence of chemical substance (yeast gene YJL171C, incubated two hours with chemical substance): 2.2
The level of expressed mRNA in the presence of chemical substance/The level of expressed mRNA in the absence of chemical substance (yeast gene YJR008W, incubated two hours with chemical substance): 1.4
The level of expressed mRNA in the presence of chemical substance/The level of expressed mRNA in the absence of chemical substance (yeast gene YJR054W, incubated two hours with chemical substance): 0.7
The level of expressed mRNA in the presence of chemical substance/The level of expressed mRNA in the absence of chemical substance (yeast gene YKL071W): 40.3
The level of expressed mRNA in the presence of chemical substance/The level of expressed mRNA in the absence of chemical substance (yeast gene YKL086W, incubated two hours with chemical substance): 0.7
The level of expressed mRNA in the presence of chemical substance/The level of expressed mRNA in the absence of chemical substance (yeast gene YKL151C, incubated two hours with chemical substance): 2.3
